Results reported in patent US10100011B2, “Pentadienoyl piperidine derivative and use thereof” (Industry-Academic Cooperation Foundation, Yonsei University, priority 2014, dated 2018).

Columns and labels:
[1] = test system: 3T3L1 cells; assay: Adipocyte differentiation inhibition in preadipocytes (Oil-red O staining); format: cell-based, mouse; conditions: for adipocyte differentiation inhibition effect (in words): different concentrations
Protocol: Preadipocytes, 3T3L1 cells, were aliquoted into a 12-well plate and cultured in a DMEM medium containing 1% penicillin-streptomycin, 1% nonessential amino acid, and 10% fetal bovine serum (FBS) in a 5% CO2 incubator at 37° C. until confluence. The 3T3L1 cells grown to confluence were cultured for two days in a medium containing 0.5 mM isobutyl-methylxanthine, 1 μM dexamethasone (MDI), and 1 μg/ml insulin, thereby being differentiated into adipocytes. Subsequently, the differentiated adipocytes were further cultured for two days in a DMEM medium including 1 μg/ml insulin, thereby being differentiated into mature adipocytes. Subsequently, the differentiated mature adipocytes were further cultured for 10 days while replacing a used DMEM medium with a new DMEM medium every two days. As a result, completely differentiated adipocytes were formed.
3T3-L1 cells were treated with each of a total of four novel compound types at different concentrations every two days from the first day of cell differentiation induction by addition of DMI. Each of the derivative compounds was dissolved in DMSO and then used. A negative control group including only DMSO was included in this experiment. Cell culture was carried out for 14 days. When differentiation was completed, a medium was removed and lipid droplets contained in differentiated adipocytes were stained. To stain the lipid droplets, cells were washed with phosphate buffered saline (PBS) twice and then fixed with 10% buffered neutral formalin for one hour, followed by washing with PBS once. Subsequently, 1 ml of Oil-red-O dye for staining lipid droplets red was fed into a 12-well plate and lipid droplets were stained for one hour, followed by washing with distilled water twice. To measure the concentration of neutral fat contained in the differentiated 3T3L1 cells, the stained lipid droplets were dissolved in 1 ml of isobutanol, followed by measuring an O.D value at 600 nm.

[2] = test system: C57BL/6J mice; assay: Body weight and visceral fat weight in mice fed high-fat diet; format: in vivo, mouse; conditions: high-fat diet with about 0.05% compound (sibutramine about 0.01%), 10 weeks
Protocol: An obesity induction diet used in this experiment was a high-fat diet (HFD: 40% fat calories, 17 g of lard+3% corn oil/100 g diet), and the compositions of diets including the LJ-2501, LJ-2488, LJ-2495, LJ-2496 compounds were identical to that of HFD, except that each of the compounds was included in an amount of about 0.05% (Table 2). As a control drug, an anti-obesity drug, sibutramine (Sibut), was added in an amount of about 0.01% to the high-fat diet and a normal diet group (Chow) was fed with commercial rodent chow.
5-week old 40 male C57BL/6J mice (Orient Bio., Korea) were fed with hard feed and accommodated in a laboratory environment for one week. Subsequently, in accordance with a randomized block method, the mice were randomly grouped into a normal diet group, a high-fat diet control group, two experimental substance groups, and […] and raised for a total of 10 weeks (n=8/group). Diets were supplied with water between 10 am and 11 am every day. An intake amount was measured every day and the body weights of the mice were measured every week. To prevent temporal weight change due to feed intake, feedboxes were removed and, after two hours, the body weights were measured. The experimental animals were fasted for 12 hours or more and then anesthetized with diethyl ether, followed by collecting blood, liver, and visceral adipose tissues (epididymal fat, perirenal fat, mesenteric fat, and retroperitoneal fat). The collected samples were washed with 0.1 M phosphate buffered saline (pH 7.4) and then weighed. Blood samples collected from abdominal aortas were centrifuged at 1000×g for 15 minutes, thereby separating plasma.

Row | SMILES | adipocyte differentiation inhibition effect (in words) [1] | EC50 ([1]; Mus musculus, 3T3-L1, treated every two days during 14 days differentiation, Oil-red O O.D. 600 nm, read-out: preadipocyte differentiation inhibition effect, EC50 value) [µM] | visceral fat reduction effect, change vs HFD (given with minus sign) [2] [%] | weight reduction effect, change in cumulative weight gain vs HFD (given with minus sign) [2] [%]
1 | CCCOc1ccc(/C=C/C=C/C(=O)N2CCCCC2)cc1 [LJ-2496, (2E,4E)-1-(piperine-1-yl)-5-(4-propoxyphenyl)penta-2,4-diene-1-one] | did not exhibit an adipocyte differentiation inhibition effect | – | – | –
2 | CCOc1ccc(/C=C/C=C/C(=O)N2CCCCC2)cc1 [LJ-2495, (2E,4E)-5-(4-ethoxyphenyl)-1-(piperine-1-yl)penta-2,4-diene-1-one] | did not exhibit an adipocyte differentiation inhibition effect | – | – | –
3 | COc1ccc(OC)c(/C=C/C=C/C(=O)N2CCCCC2)c1 [LJ-2488, (2E,4E)-5-(2,5-dimethoxyphenyl)-1-(piperine-1-yl)penta-2,4-diene-1-one] | – | 2800 | −6 | −14
4 | CC(C)CC(N(C)C)C1(c2ccc(Cl)cc2)CCC1 (stereo not shown) [sibutramine, reference compound] | – | – | −22 | −33
